pIC50: −log10 of the molar value.

Consider seven compounds from patent publication US12145947B2, “Pyrimidine based modulators and uses thereof” (Quanta Therapeutics, Inc., priority 2022, dated 2024).

The target in one assay is T1, KRAS G12D/RAF1 (Homo sapiens, UniProt P01116, G12D).
T1 construct: His6-MBP (N, cleaved yes); made in house; host or cells: E. coli
As to the kind of experiment: Protein-protein interaction (PPI) HTRF assay KRAS G12D/RAF1. To be noted: Table 4. It counts as binding. The method, boiled down:
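HTRF pairing of His-tagged RAF1 (52-131) plus Tb-cryptate donor with GppNHp-exchanged biotin-RAS (KRAS 1-169 wt/G12D/G12V, NRAS wt) plus streptavidin-d2 acceptor; compound sits 30 min with RAS first, then 1 h RT with RAF1. IC50 derived from 665/615 ratio, untagged RAF1 defining full inhibition.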
(In general: Time-resolved FRET reads energy transfer from a long-lived donor to a nearby acceptor.)

Assay [1] deals with AGS cells (KRAS G12D), phospho-ERK. As to the kind of experiment: pERK In Cell Western (ICW) assay (Method B), AGS cells. It counts as cell-based. To be noted: Homo sapiens, Table 4, pERK, 3 hours, read-out: ICW-AGS. The method, boiled down:
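GP2D (10,000 cells/well) and AGS (5,000 cells/well) cells were treated for 3 h at 37 °C with a 10-point, ½-log dilution series (top […]). They were then fixed and immunostained for phospho-ERK. pERK signal was normalised to DRAQ5 and expressed as % of DMSO, with IC50 from a 4-parameter fit.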

T1 sequence (P01116 with tags, fused parts or gaps isoform P01116-2 G12D): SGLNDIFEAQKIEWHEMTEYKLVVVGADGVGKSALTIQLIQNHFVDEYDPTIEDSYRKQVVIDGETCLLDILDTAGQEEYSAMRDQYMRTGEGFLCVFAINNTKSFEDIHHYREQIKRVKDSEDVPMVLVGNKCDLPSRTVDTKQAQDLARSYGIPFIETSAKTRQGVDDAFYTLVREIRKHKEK

For `CO[C@H]1CN(CC2(COc3nc(N4C[C@H]5CC[C@@H](C4)N5)c(C#N)c(N4CC5(CCc6sc(N)c(C#N)c65)C4)n3)CC2)C[C@@H]1F` [Compound 81, 2-amino-1′-[5-cyano-6-[(1R,5S)-3,8-diazabicyclo[3.2.1]octan-3-yl]-2-[[1-[[(3S,4S)-3-fluoro-4-methoxy-pyrrolidin-1-yl]methyl]cyclopropyl]methoxy]pyrimidin-4-yl]spiro[5,6-dihydrocyclopenta[b]thiophene-4,3′-azetidine]-3-carbonitrile], the results for the pIC50 (at KRAS G12D/RAF1; in assay [1]) were 5.00 to 6.00 and 6.00 to 7.00, respectively.

In the case of `Cc1nc(-c2nn3c(c2Cl)CN(c2nc(OC[C@@]45CCCN4C[C@H](F)C5)nc(N4CC5(CCc6sc(N)c(C#N)c65)C4)c2C#N)CCC3)n(C)n1` [Compound 85, 2-amino-1′-[6-[3-chloro-2-(2,5-dimethyl-1,2,4-triazol-3-yl)-4,6,7,8-tetrahydropyrazolo[1,5-a][1,4]diazepin-5-yl]-5-cyano-2-[[(2R,8S)-2-fluoro-1,2,3,5,6,7-hexahydropyrrolizin-8-yl]methoxy]pyrimidin-4-yl]spiro[5,6-dihydrocyclopenta[b]thiophene-4,3′-azetidine]-3-carbonitrile], the pIC50 against KRAS G12D/RAF1 is 4.00 to 5.00; in assay [1], 6.00 to 7.00.

For `N#Cc1c(N2C[C@H]3CC[C@@H](C2)N3)nc(OCC2(CN3CCOCC3)CC2)nc1N1CC2(C=CCc3sc(N)c(C#N)c32)C1` [Compound 86, 2-amino-1′-[5-cyano-2-[[1-(morpholinomethyl)cyclopropyl]methoxy]-6-[(1R,5S)-3,8-diazabicyclo[3.2.1]octan-3-yl]pyrimidin-4-yl]spiro[7H-benzothiophene-4,3′-azetidine]-3-carbonitrile], the values for the pIC50 (against KRAS G12D/RAF1; in assay [1]) were over 7.00 and 7.00 to 8.00, respectively.

Consider `CN(C)CC1(COc2nc(N3CCCn4nc(C(=O)N(C)C)c(Cl)c4C3)c(C#N)c(N3CC4(CCc5sc(N)c(C#N)c54)C3)n2)CC1(F)F` (centres unmarked) [Compound 87, 5-[6-(2-amino-3-cyano-spiro[5,6-dihydrocyclopenta[b]thiophene-4,3′-azetidine]-1′-yl)-5-cyano-2-[[1-[(dimethylamino)methyl]-2,2-difluoro-cyclopropyl]methoxy]pyrimidin-4-yl]-3-chloro-N,N-dimethyl-4,6,7,8-tetrahydropyrazolo[1,5-a][1,4]diazepine-2-carboxamide], for which the pIC50 against KRAS G12D/RAF1 was 5.00 to 6.00; in assay [1], 7.00 to 8.00.

As to `C[C@H](Oc1nc(N2C[C@H]3CC[C@@H](C2)N3)c(C#N)c(N2CC3(CCc4sc(N)c(C#N)c43)C2)n1)[C@@H]1CCCN1C` [Compound 88, 2-amino-1′-[5-cyano-6-[(1R,5S)-3,8-diazabicyclo[3.2.1]octan-3-yl]-2-[(1S)-1-[(2S)-1-methylpyrrolidin-2-yl]ethoxy]pyrimidin-4-yl]spiro[5,6-dihydrocyclopenta[b]thiophene-4,3′-azetidine]-3-carbonitrile], the figures for the pIC50 (against KRAS G12D/RAF1; in assay [1]) were 4.00 to 5.00 and 5.00 to 6.00, respectively.

As to `N#Cc1c(N2C[C@H]3CC[C@@H](C2)N3)nc(OCC2(CN3C[C@@H]4C[C@H]3CO4)CC2)nc1N1CC2(CCc3sc(N)c(C#N)c32)C1` [Compound 89, 2-amino-1′-[5-cyano-6-[(1R,5S)-3,8-diazabicyclo[3.2.1]octan-3-yl]-2-[[1-[[(1S,4S)-2-oxa-5-azabicyclo[2.2.1]heptan-5-yl]methyl]cyclopropyl]methoxy]pyrimidin-4-yl]spiro[5,6-dihydrocyclopenta[b]thiophene-4,3′-azetidine]-3-carbonitrile], the figures for the pIC50 (on KRAS G12D/RAF1; in assay [1]) were 6.00 to 7.00 and 7.00 to 8.00, respectively.

Consider `CN(C)C(=O)c1nn2c(c1Cl)CN(c1nc(OC[C@@]34CCCN3C[C@H](F)C4)nc(N3CC4(CCc5sc(N)c(C#N)c54)C3)c1C#N)CC(F)(F)C2` [Compound 91, 5-[6-(2-amino-3-cyano-spiro[5,6-dihydrocyclopenta[b]thiophene-4,3′-azetidine]-1′-yl)-5-cyano-2-[[(2R,8S)-2-fluoro-1,2,3,5,6,7-hexahydropyrrolizin-8-yl]methoxy]pyrimidin-4-yl]-3-chloro-7,7-difluoro-N,N-dimethyl-6,8-dihydro-4H-pyrazolo[1,5-a][1,4]diazepine-2-carboxamide], for which the pIC50 at KRAS G12D/RAF1 is 6.00 to 7.00; in assay [1] it was 7.00 to 8.00.
